# Measured values as given in US7595401B2, “Therapeutic compounds and their use in cancer” (Myriad Pharmaceuticals, Inc., priority 2006, dated 2009).
# System: purified human Hsp90
# Assay: Binding Assay: fluorescence polarization with BODIPY-labeled geldanamycin
# Conditions: 5 μM compound, BODIPY-GM 10 nM, Hsp90 30 nM
# How it was run: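 Compounds in 2% DMSO final compete with 10 nM BODIPY-GM for 30 nM purified human Hsp90, incubated overnight at room temperature in pH 7.3 HEPES buffer containing Na2MoO4 and DTT. Polarization (mP, ex/em 485/530) normalized to DMSO gives percent inhibition; autofluorescence-confounded data excluded.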
row,SMILES,% Inhibition at 5 μM Compound Concentration [%]
1,"CC(C)C(Cn1cnc(N)c2nc(Sc3cc4c(cc3Br)OCO4)nc1-2)c1ccccc1 (stereo not shown) [Example 127, 8-(6-bromo-benzo[1,3]dioxol-5-ylsulfanyl)-3-(3-methyl-2-phenyl-butyl)-3H-purin-6-ylamine]",51
2,"COc1ccc(OC)c(Sc2nc3c(N)ncn(CCC4CCNCC4)c-3n2)c1 [Example 467, 8-[(2,5-Dimethoxyphenyl)thio]-3-(2-piperidin-4-ylethyl)-3 H-purin-6-amine]",0
3,"COc1ccc(OC)c(Sc2nc3c(N)ncn(CCc4ccc(S(=O)(=O)O)cc4)c-3n2)c1 [Example 176, 4-{2-[6-amino-8-(2,5-dimethoxy-phenylsulfanyl)-purin-3-yl]-ethyl}-benzenesulfonic acid]",6
4,"CC(C)(C)OC(=O)NC(CCn1cnc(N)c2nc(Sc3cc4c(cc3Br)OCO4)nc1-2)C1CCCC1 (stereo not shown) [Example 680, {3-[6-Amino-8-(6-bromo-benzo[1,3]dioxol-5-ylsulfanyl)-purin-3-yl]-1-cyclopentyl-propyl}-carbamic acid tert-butyl ester]",14

# Further lines, results first:
row,% Inhibition at 5 μM Compound Concentration [%],SMILES
1,80,"COc1cc(CCn2c(Sc3cc4c(cc3Br)OCO4)nc3c(N)ncnc32)cc(OC)c1 [Example 195, 8-(6-Bromo-benzo[1,3]dioxol-5-ylsulfanyl)-9-[2-(3,5-dimethoxy-phenyl)-ethyl]-9H-purin-6-ylamine]"
2,49.00,Nc1ncn(CCC2CC3CCC(C2)O3)c2nc(Sc3cc4c(cc3Br)OCO4)nc1-2 (stereo not shown) [Example 606]

# Same assay, conditions: BODIPY-GM 10 nM, Hsp90 30 nM
row,SMILES,IC50 [nM]
1,"N#Cc1ccc(Sc2nc3c(N)ncnc3n2CCc2ccccc2)cc1 [Example 19, 4-(6-Amino-9-phenethyl-9H-purin-8-ylsulfanyl)-benzonitrile]",> 10000
2,"COc1cc(F)c(Sc2nc3c(N)ncnc3n2CCC2CCN(C(C)=O)CC2)cc1F [Example 559, 9-[2-(1-Acetylpiperidin-4-yl)ethyl]-8-[(2,5-difluoro-4-methoxyphenyl)thio]-9 H-purin-6-amine]",> 5000
3,"COc1ccc(OC)c(Sc2nc3c(N)ncn(CCc4ccc(C)cc4)c-3n2)c1 [Example 24, 8-(2,5-dimethoxy-phenylsulfanyl)-3-(2-p-tolyl-ethyl)-3H-purin-6-ylamine]",> 10000

# More lines, now with the values ahead:
row,IC50 [nM],SMILES
1,79,"COc1cc(CCn2c(Sc3cc4c(cc3Br)OCO4)nc3c(N)ncnc32)cc(OC)c1 [Example 195, 8-(6-Bromo-benzo[1,3]dioxol-5-ylsulfanyl)-9-[2-(3,5-dimethoxy-phenyl)-ethyl]-9H-purin-6-ylamine]"
2,45,"Nc1ncnc2c1nc(Sc1cc3c(cc1Br)OCO3)n2CCc1ccccc1Cl [Example 53, 8-(6-Bromo-benzo[1,3]dioxol-5-ylsulfanyl)-9-[2-(2-chloro-phenyl)-ethyl]-9H-purin-6-ylamine]"
3,300,"Nc1ncnc2c1nc(Sc1cc3c(cc1Br)OCO3)n2CCc1cccc(F)c1 [Example 109, 8-(6-Bromo-benzo[1,3]dioxol-5-ylsulfanyl)-9-[2-(3-fluoro-phenyl)-ethyl]-9H-purin-6-ylamine]"
4,100,"Nc1ncnc2c1nc(Sc1cc3c(cc1Br)OCO3)n2CCC1CCN(C(=O)C2CC2(F)F)CC1 (stereo not shown) [Example 524, 8-[(6-Bromo-1,3-benzodioxol-5-yl)thio]-9-(2-{1-[(2,2-difluorocyclopropyl)carbonyl]piperidin-4-yl}ethyl)-9 H-purin-6-amine]"
5,120,"CCCCNC(=O)Nc1ccc(CCn2c(Sc3cc4c(cc3Br)OCO4)nc3c(N)ncnc32)cc1 [Example 281, N-[4-(2-{6-Amino-8-[(6-bromo-1,3-benzodioxol-5-yl)thio]-9H-purin-9-yl}ethyl)phenyl]-N′-butylurea]"
6,470,"Nc1ncnc2c1nc(Sc1cc3c(cc1Br)OCO3)n2CCC1CCNCC1 [Example 465, 8-[(6-bromo-1,3-benzodioxol-5-yl)thio]-9-(2-piperidin-4-ylethyl)-9H-purin-6-amine]"
7,600,"CC(C)[C@H](NC(=O)OC(C)(C)C)C(=O)N1CCCC(CCn2c(Sc3cc4c(cc3Br)OCO4)nc3c(N)ncnc32)C1 (stereo partly drawn) [Example 697, tert-Butyl((1S)-1-{[3-(2-{6-amino-8-[(6-bromo-1,3-benzodioxol-5-yl)thio]-9H-purin-9-yl}ethyl)piperidin-1-yl]carbonyl}-2-methylpropyl)-carbamate]"
